Test results from patent publication US20250176599A1, “FLAVOR COMPOSITION AND FOOD AND BEVERAGE” (TAKASAGO INTERNATIONAL CORPORATION, priority 2021, published 2025).

Legend:
[1] = Sensory evaluation of degradation component-added mayonnaise II (1,5-octadien-3-one 5 ppm)
Description: To commercially available mayonnaise (“Kewpie Mayonnaise” manufactured by Kewpie Corporation), each degradation component was added to prepare degradation component-added mayonnaises I and II at the concentrations listed in Table 20. To these degradation component-added mayonnaises, oleic acid was added at the concentrations listed in Table 21 to confirm the intensity of the off-flavor (masking effect) and the intensity of the masking components (impact on the flavor of the mayonnaise itself) for each sample.
Six experienced panelists were selected to conduct a sensory evaluation similar to that of Example 1.
To the degradation component-added mayonnaise II listed in Table 20, menthyl 3-hydroxybutyrate was added at the concentrations listed in Table 22 to confirm the intensity of the off-flavor (masking effect) and the intensity of the masking component (impact on the flavor of the mayonnaise itself) for each sample.

[2] = Sensory evaluation of degradation component-added shortening I ((E)-2-octenal 500 ppb); conditions: average panel score
Description: (§1) To commercially available shortening (“Pampas LTR30” manufactured by Fuji Oil Co., Ltd.), each degradation component was added to prepare degradation component-added shortenings I and II at the concentrations listed in Table 17. To these degradation component-added shortenings, β-ionone was added at the concentrations listed in Table 18 to confirm the intensity of the off-flavor (masking effect) and the intensity of the masking components (impact on the flavor of the shortening itself) for each sample.
Eight experienced panelists were selected to conduct a sensory evaluation similar to that of Example 1. […]

[3] = Overall conclusion of the sensory evaluation across shortenings I and II
Description: as §1
(§2) Eight experienced panelists were selected to conduct a sensory evaluation similar to that of Example 1.
(§3) The same method as in Example 16 was used to confirm the intensity of the off-flavor (masking effect) derived from unsaturated fatty acids by β-damascenone and the intensity of the masking components (impact on the flavor of the shortening itself).

[4] = Sensory evaluation of degradation component-added shortening II (1,5-octadien-3-one 1 ppb); conditions: average panel score
Description: as §1, §2, §3

Compound	Masking Component Intensity ([2]; 1 ppb added)	Off-Flavor Intensity ([2]; 1 ppb added)	Masking Component Intensity ([2]; 1 ppt added)	Off-Flavor Intensity ([2]; 1 ppt added)	Masking Component Intensity ([2]; 10 ppb added)	Off-Flavor Intensity ([2]; 10 ppb added)	Masking Component Intensity ([2]; 10 ppt added)	Off-Flavor Intensity ([2]; 10 ppt added)	Masking Component Intensity ([2]; 100 ppt added)	Off-Flavor Intensity ([2]; 100 ppt added)	concentration that masks the off-flavor and does not affect the flavor of the shortening itself, upper limit [3] [ppb]	Masking Component Intensity ([4]; 1 ppb added)	Off-Flavor Intensity ([4]; 1 ppb added)	Masking Component Intensity ([4]; 1 ppt added)	Off-Flavor Intensity ([4]; 1 ppt added)	Masking Component Intensity ([4]; 10 ppb added)	Off-Flavor Intensity ([4]; 10 ppb added)	Masking Component Intensity ([4]; 10 ppt added)	Off-Flavor Intensity ([4]; 10 ppt added)	Masking Component Intensity ([4]; 100 ppt added)	also measured
CC(O)CC(=O)OC1CC(C)CCC1C(C)C (stereo not shown) [menthyl 3-hydroxybutyrate]	–	–	–	–	–	–	–	–	–	–	–	–	–	–	–	–	–	–	–	–	concentration that masks the off-flavor and does not affect the flavor of the mayonnaise itself, lower limit [1]: ≥ 100 ppt; concentration that masks the off-flavor and does not affect the flavor of the mayonnaise itself, upper limit [1]: ≤ 100 ppm; Masking Component Intensity ([1]; 1 ppb added): 0.2; Off-Flavor Intensity ([1]; 1 ppb added): 3.0; Masking Component Intensity ([1]; 1 ppm added): 0.6; Off-Flavor Intensity ([1]; 1 ppm added): 0.8; Masking Component Intensity ([1]; 10 ppb added): 0.2; Off-Flavor Intensity ([1]; 10 ppb added): 2.2; Masking Component Intensity ([1]; 10 ppm added): 1.0; Off-Flavor Intensity ([1]; 10 ppm added): 0.6; Masking Component Intensity ([1]; 50 ppm added): 1.6; Off-Flavor Intensity ([1]; 50 ppm added): 0.6; Masking Component Intensity ([1]; 100 ppb added): 0.4; Off-Flavor Intensity ([1]; 100 ppb added): 1.6; Masking Component Intensity ([1]; 100 ppm added): 2.0; Off-Flavor Intensity ([1]; 100 ppm added): 0.6; Masking Component Intensity ([1]; 100 ppt added): 0.2; Off-Flavor Intensity ([1]; 100 ppt added): 3.0
C/C=C/C(=O)C1=C(C)C=CCC1(C)C [β-Damascenone, β-damascenone]	2.9	1.8	1.1	3.1	3.1	1.1	1.5	2.6	2.1	2.3	≤ 10	2.5	2.3	0.9	3.4	2.6	2.0	1.3	3.0	1.9	Off-Flavor Intensity ([4]; 100 ppt added): 2.5
CC(=O)/C=C/C1=C(C)CCCC1(C)C [β-Ionone, β-ionone]	2.1	1.5	0.6	3.1	2.6	1.1	1.1	2.6	1.8	2.4	≤ 10	1.9	2.4	0.4	3.6	2.3	2.0	0.9	3.4	1.5	concentration that masks the off-flavor and does not affect the flavor of the shortening itself, lower limit [3]: ≥ 10 ppt; Off-Flavor Intensity ([4]; 100 ppt added): 2.8
